Source: patent US12653796B2, “Compounds for use (in particular RIPA-56) in the prevention and/or treatment of non-alcoholic fatty liver disease” (SORBONNE UNIVERSITE, priority 2019, dated 2026)

Test system: MLKL
Experiment: Western blot of MLKL phosphorylation/activation in TNF-treated L929 cells
Format: cell-based
Details: within hours
Protocol: FIG. 1. RIPA-56 prevents RIPK1-dependent cell death in L929 cells upon caspase inhibition and TNF stimulation. L929 cells were treated with RIPA-56 (20 μM), Nec-1 (20 μM) or vehicle for 2 h, prior to incubation with or without TNF (50 ng/mL), and analyzed for (A) morphology and (B) cell survival using MTT assay, after 20 h incubation with or without TNF; (C) Western blot analyses at different time points of incubation with TNF. Results are shown as mean±SEM; n.s., not significant; ****p<0.0001. Data are representative of three independent experiments.
L929 cells (LGC Standards, Molsheim, France), were cultured in Dulbecco's modified Eagle's medium (DMEM) (ThermoFisher, Massachusetts, USA) supplemented with 10% fetal bovine serum (Eurobio, Courtaboeuf, France), penicillin (100 IU/ml), streptomycin (0.1 mg/ml), and L-glutamine (0.03%) (ThermoFisher). […]
Tissue samples were homogenized in NP-40 lysis buffer using a tissue grind pestle (Kimble, Rockwood, USA) or with a bead ruptor 12 (Omni International, Georgia, USA) to obtain protein lysates. Thirty μg of protein extracts from cells or tissue homogenates were separated by SDS-PAGE, transferred to polyvinylidene difluoride membrane and analyzed by immunoblotting. […]

With `CCC(C)(C)C(=O)N(O)Cc1ccccc1` [RIPA-56, N-Benzyl-N-hydroxy-2,2-dimethylbutanamide] the “phosphorylation and activation of MLKL” value was “inhibited”.
